Consider ten compounds from ChEMBL document CHEMBL3044767, “GdCl3 promoted synthesis of novel pyrimidine fused indazole derivatives and their anticancer activity” (Med Chem Res, 2012).

Test [1] deals with U-937. The test can be described thus: Ratio of etoposide IC50 to compound IC50 for Homo sapiens (human) U937 cells after 48 hr by MTT assay. The class given is functional.
For test [2], the system named is U-937. The test can be described thus: Cytotoxicity against Homo sapiens (human) U937 cells after 48 hr by MTT assay. The class given is functional, cell-based. As to conditions: U-937, 48 h. In general terms: Tetrazolium assays rely on reduction of a dye to a coloured formazan, in cell work by metabolically active cells.
The subject of a further test is THP-1. The test can be described thus: Cytotoxicity against Homo sapiens (human) THP1 cells after 48 hr by MTT assay. It is filed as functional, cell-based. As to conditions: THP-1, 48 h.

Converted amounts (≈) assume the structure as drawn.

Take `N#Cc1c(-c2ccccc2)cc(C(F)(F)F)c2c3n(nc12)C(c1ccccc1)C[C@H](c1ccccc1)N3` (some centres not stated): in the test on U-937 [1], the “Ratio IC50” value is listed as 1.4. This compound also displayed an IC50 in the test on U-937 [2] of 7.52 µg/mL (≈ 15.2 µM).

As to `N#Cc1c(C(F)(F)F)cc(-c2ccccc2)c2c3n(nc12)[C@H]1OCCC[C@H]1[C@H](c1ccccc1)N3`, the IC50 in the test on THP-1 turned out to be 79.9 µg/mL (≈ 168 µM); in the test with U-937 [2] it was 9.02 µg/mL (≈ 19 µM). Besides, the “Ratio IC50” value in the test on U-937 [1] stood at 1.17.

Turning to `C=CC1(C)C[C@H](c2ccccc2)Nc2c3c(-c4ccccc4)cc(C(F)(F)F)c(C#N)c3nn21` (some centres not stated), the IC50 amounted to 53.3 µg/mL (≈ 116 µM) in the test on THP-1 and 8.7 µg/mL (≈ 19 µM) with U-937 [2]. Also, the “Ratio IC50” value in the test on U-937 [1] was determined as 1.21.

As for `N#Cc1c(-c2ccccc2)cc(C(F)(F)F)c2c3n(nc12)[C@H]1C=CCC[C@H]1CN3`, in the test with U-937 [1], the “Ratio IC50” value turned out to be 4. This compound gave an IC50 in the test on U-937 [2] of 2.64 µg/mL (≈ 6.69 µM).

Turning to `N#Cc1c(C(F)(F)F)cc(-c2ccccc2)c2c3n(nc12)[C@H]1OCCC[C@H]1CN3`, the IC50 in the test with THP-1 came to 33.5 µg/mL (≈ 84.1 µM); in the test with U-937 [2] it was 11.2 µg/mL (≈ 28.2 µM).

Regarding `N#Cc1c(C(F)(F)F)cc(-c2ccccc2)c2c3n(nc12)C(c1ccccc1)CCN3` (configuration not stated), in the test on U-937 [1], the “Ratio IC50” value was 1.33. Besides, the midpoint of inhibition in the test with U-937 [2], the IC50, lay at 7.92 µg/mL (≈ 18.9 µM).

With `N#Cc1c(-c2ccccc2)cc(C(F)(F)F)c2c3n(nc12)[C@H]1OCCC[C@H]1CN3`, the results for the IC50 with THP-1 and in the test with U-937 [2] were 65.4 µg/mL (≈ 164 µM) and 6.49 µg/mL (≈ 16.3 µM), respectively. Besides, in the test with U-937 [1], the “Ratio IC50” value was determined as 1.63.

With `C=CC1(C)CCNc2c3c(-c4ccccc4)cc(C(F)(F)F)c(C#N)c3nn21` (configuration not stated), in the test with U-937 [1], the “Ratio IC50” value was 1.09. In the test on U-937 [2], this compound gave an IC50 of 9.73 µg/mL (≈ 25.4 µM).

For `N#Cc1c(-c2ccccc2)cc(C(F)(F)F)c2c3n(nc12)C(c1ccccc1)CCN3` (configuration not stated), the “Ratio IC50” value with U-937 [1] is 1.13. The compound also registered an IC50 in the test with U-937 [2] of 9.36 µg/mL (≈ 22.4 µM).

In the case of `C=CC1(C)CCNc2c3c(C(F)(F)F)cc(-c4ccccc4)c(C#N)c3nn21` (configuration not stated), the IC50 in the test on U-937 [2] stood at 53.5 µg/mL (≈ 140 µM).

In general, IC50 refers to the point on the concentration scale where inhibition reaches its midpoint. A higher IC50 goes with a need for much substance.
